In ChEMBL document CHEMBL1143236, “Design, synthesis, FGF-1 binding, and molecular modeling studies of conformationally flexible heparin mimetic disaccharides” (Bioorg Med Chem Lett, 2008):

Molecular target: Fibroblast growth factor 1 (Homo sapiens, UniProt P05230)
Experiment: Binding affinity at FGF1

Sequence of Fibroblast growth factor 1 (P05230 whole entry): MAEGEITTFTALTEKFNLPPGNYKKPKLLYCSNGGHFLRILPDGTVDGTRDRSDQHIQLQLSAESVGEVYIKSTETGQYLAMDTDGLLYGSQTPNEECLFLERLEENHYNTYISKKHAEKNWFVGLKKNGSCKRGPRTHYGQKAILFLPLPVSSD

Kd [µM] | SMILES
1400 | CO[C@@H]1OC[C@@H](O[C@H]2O[C@H](CO)[C@H](O)[C@H](O)[C@H]2OS(=O)(=O)O)[C@H](OS(=O)(=O)O)[C@H]1OS(=O)(=O)O
47.9 | CO[C@@H]1O[C@H](COS(=O)(=O)O)[C@@H](O[C@H]2O[C@H](COS(=O)(=O)O)[C@H](OC)[C@H](OC)[C@H]2OS(=O)(=O)O)[C@H](OS(=O)(=O)O)[C@H]1OS(=O)(=O)O
77.5 | CO[C@@H]1O[C@H](COS(=O)(=O)O)[C@@H](O[C@H]2O[C@H](CO)[C@H](O)[C@H](O)[C@H]2OS(=O)(=O)O)[C@H](OS(=O)(=O)O)[C@H]1OS(=O)(=O)O
21.8 | CO[C@@H]1O[C@H](COS(=O)(=O)O)[C@@H](O[C@H]2O[C@H](COS(=O)(=O)O)[C@H](O)[C@H](O)[C@H]2OS(=O)(=O)O)[C@H](OS(=O)(=O)O)[C@H]1OS(=O)(=O)O
233 | COC[C@H]1O[C@H](O[C@H]2[C@H](OS(=O)(=O)O)[C@@H](OS(=O)(=O)O)[C@H](OC)O[C@@H]2COS(=O)(=O)O)[C@H](OS(=O)(=O)O)[C@@H](OC)[C@H]1OC
